Laboratory results as given in US20250122242A1, “SELECTION SYSTEMS, PEPTIDES DETERMINED THEREWITH, AND METHODS OF USING SAME” (Wisconsin Alumni Research Foundation, priority 2023, published 2025).

Assays:
[1] = molecular target: T1, Aβ42-T7n (UniProt P00573+P05067); details: for Fold enrichment in negative vs. positive selection: percent reads negative vs. positive selection; for Percent total reads (negative selection) / Rank (negative selection): subsequent negative selection against Aβ42, high-throughput sequencing
From the text: To create a negative selection, we placed gIII-neg, a dominant-negative form of gIII,^44 under PT7 in our selection circuit. Inhibition of a non-target APP (ex. Aβ42) triggers pIII-neg expression and poisons phage proliferation. A second plasmid produces small amounts of pIII from the phage shock promoter (FIG. 16A). All SPs infecting cells encoding this negative selection receive sufficient pIII to propagate. However, SP that carry a promiscuous or false positive cyclic peptide will also produce pIII-neg and generate non-infectious progeny (FIGS. 16B and 16C). We subjected the hIAPP round 5 phage population to four rounds of negative selection, diluting the phage by 100-fold each round (FIG. 5B).
(§1) Single colonies of host cells transformed with the appropriate selection plasmids were used to make overnight cultures in 2×YT with maintenance antibiotics. The overnight culture was diluted (1:100) into 4-5 mL DRM with maintenance antibiotics and incubated at 37° C. with shaking until the OD600 of the culture reached ˜0.5, upon which the expanded phage library was added at a titer of 1×10^6 pfu/mL. The culture was incubated at 37° C. with shaking overnight (13-18 h). The next day, the culture was centrifuged at 8,000 rcf for 2 min to obtain the supernatant containing phage. The collected phage was diluted into fresh host cell cultures (10 to 1,000-fold) for the next round of selection, while the rest was stored at 4° C. for downstream analysis. This process was repeated until a significant increase in phage propagation was observed compared with the parent library. Both positive and negative selection rounds were performed using this procedure.
(§2) Sample preparation. Phage stocks collected from the final rounds of library selection were first amplified using LY0145 and LY0146. The PCR product was purified, and adapters added using LY0147 and LY0148. The resulting PCR product was purified and barcoded through a final PCR using index primers to add unique indices for shared Illumina NovaSeq sequencing. The final PCR product was purified, and the concentration measured by Nanodrop. Further sample quality control was performed by the University of Wisconsin-Madison Biotechnology Center (UWBC).
(§3) High-throughput sequencing and data analysis. High-throughput sequencing was performed by UWBC using a shared sequencing service on the NovaSeq 6000 platform. Sequencing reads were demultiplexed by UWBC and analyzed using custom-written Python scripts.

[2] = molecular target: hIAPP-T7n (UniProt P00573+P10997); details: positive selection on hIAPP, high-throughput sequencing; for Rank (positive selection): top enriched sequences
From the text: Next, we examined if our system could discover inhibitors of other disease-associated APPs. We targeted human islet amyloid polypeptide (hIAPP), which forms amyloid deposits in patients with type-2 diabetes that are hypothesized to contribute to […] dysfunction.^40 To create a selection for hIAPP aggregation inhibitors, we simply cloned hIAPP in place of Aβ42 in our selection circuit (FIG. 2B). We used an SP-encoded CZ6 SICLOPPS library (Z=NDT codon encoded amino acid: R, N, D, C, G, H, I, L, F, S, Y, or V) (˜3×10^6 total sequences). This codon set was chosen to reduce the theoretical library size and facilitate library cloning. The library (total of ˜5×10^6 transformants) was cloned on a SP obtained from an additional 250 hours of PACE using a more stringent selection (FIGS. 10A-10D).
We performed five rounds of selection, diluting the SP pool by ten-fold each round (FIG. 4A). […] To verify that we selected phage with higher activity, we measured the propagation of the SP from each round on hIAPP selection cells, normalizing input phage titers to […] to enable head-to-head comparison between phage pools.
as §1, §2, §3

[3] = molecular target: T1, Aβ42-T7n
From the text: Therefore, we turned to a split-T7 RNA polymerase (T7 RNAP) reporter used to evolve proteins with improved soluble expression.^33 In our new selection, host E. coli express an aggregation-prone protein (APP) fused to the N-terminal half of split-T7 RNAP (T7n). When the APP-T7n fusion is translated, it misfolds due to the APP, preventing T7n from associating with the C-terminal half of split-T7 RNAP (T7c; FIG. 2A). If a SP-encoded inhibitor binds to and prevents APP aggregation, the fused T7n will remain folded and join with T7c to produce full-length T7 RNAP. The reconstituted T7 RNAP then transcribes gIII, which we place under control of the T7 promoter (PT7), producing pill and allowing the SP to reproduce (FIGS. 2A and 2B).
We used the SICLOPPS method to biosynthesize cyclic peptides that can be selected in E. coli.^15 In SICLOPPS, a precursor fusion consisting of the C-terminal half of the Ssp DnaE split intein, the peptide sequence to be cyclized, and the N-terminal half of the same split intein undergoes intein splicing after translation to produce head-to-tail cyclized peptides (FIG. 7).
Strain S206035 was used for plasmid cloning, amplification, and phage assays. Strain S220835 was used for SP cloning and plaque assays. Plasmids and SPs were cloned by USER assembly or blunt-end ligation. Competent cells were prepared and transformed using the TSS method. Phage propagation and plaque assays were performed as previously described.^54 Unless otherwise noted, phage propagation assays used an input of […] phage to infect a 2 mL culture of host cells.

[4] = tested on: Aβ42-GFP; assay: Aβ42-GFP folding reporter fluorescence assay; assay type: cell-based, E. coli; details: expressed from plasmid, 0.04 mM IPTG, compared with CKVWQLL (FIG. 3H)
Protocol: Single colonies of S2060s transformed with pBL066c and SICLOPPS plasmid were used to make overnight cultures in 2×YT with maintenance antibiotics. The overnight culture was diluted (1:100) into 1 mL DRM on a 96 deep-well plate (VWR, 75870-796) with maintenance antibiotics and IPTG (0, 0.04, 0.2, or 1 mM). The diluted culture was incubated at 37° C. with shaking for 2.5 h, after which aTc (200 ng/mL) was added. 100 μL of the culture was transferred onto a black clear-bottom 96-well plate (VWR, 89131-680) to measure fluorescence signal 2, 3, 5 h after addition of aTc. GFP fluorescence signal (excitation wavelength=485 nm, emission wavelength=535 nm) was then measured using a Tecan M Plex microplate reader.

[5] = molecular target: T1, Aβ42-T7n; details: cyclo-CX6 library, seven rounds on Aβ42-T7n, deep sequencing
Protocol: as §1
Sample preparation. Phage stocks collected from the final rounds of library selection were first amplified using LY0145 and LY0146. The PCR product was purified, and adapters added using LY0147 and LY0148. […] The final PCR product was purified, and the concentration measured by Nanodrop. […]
High-throughput sequencing and data analysis. […] Sequencing reads were demultiplexed by UWBC and analyzed using custom-written Python scripts.

[6] = molecular target: T2, hIAPP (Homo sapiens, UniProt P10997); assay: ThT fluorescence assay of in vitro hIAPP aggregation; assay type: biochemical; details: chemically synthesized peptide, 10 μM hIAPP, PBS pH 6.9, 32° C., quiescent
T2 construct: A 1 mg portion of amylin trifluoroacetate salt (Bachem) was purchased as lyophilized solid in a vial; purchased Bachem
T2 sequence (P10997 34-70 limits assumed): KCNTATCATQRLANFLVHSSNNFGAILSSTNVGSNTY
Protocol: Preparation of ThT stock solution. To prepare a stock solution of ThT (2-3 mM), 2-4 mg of ThT was added to 3 mL PBS (pH 6.9) in a 15 mL conical tube. The solution was sonicated for 5 min and the supernatant was filtered through a 0.22 μm syringe filter into a 1.5 mL Eppendorf tube. This was the ThT stock solution to be used in following experiments. 2 mL of a 1:200 diluted ThT solution was prepared by adding 10 μL ThT stock solution into 1990 μL PBS. The absorbance of the diluted ThT solution measured at 412 nm was used to calculate the ThT stock concentration using an extinction coefficient (c) of 31600 M^−1 cm^−1.
Preparation of hIAPP stocks. A 1 mg portion of amylin trifluoroacetate salt (Bachem) was purchased as lyophilized solid in a vial. The solid was dissolved in pre-chilled 2562 μL 35 mM sodium acetate (pH 5.3) to a stock concentration of 100 μM on ice. Aliquots of hIAPP were prepared by transferring 200 μL of the 100 μM hIAPP stock solution to low-protein-binding Eppendorf tubes on ice. The aliquots were then immediately snap frozen using liquid N2, lyophilized for 24 h, and stored at −80° C. until use.
Preparation of samples for ThT assays. Using cyclic peptide stock solution (100 μM) and PBS, 400 μL aqueous solution of cyclic peptide was prepared in a low-protein-binding Eppendorf tube to achieve the desired cyclic peptide:hIAPP molar ratio (80 μM for 4:1, 40 μM for 2:1, 20 μM for 1:1, 10 μM for 0.5:1, 0 μM for 0:1). 30 μL of the solution was then loaded to wells on a black clear-bottom low-binding 96-well plate (Corning 3881) to make a triplicate for each condition. This plate loaded with aqueous solutions of cyclic peptides was then ready for adding hIAPP.
Preparation and addition of hIAPP for ThT assays. Using ThT stock solution and PBS, 1 mL ThT solution (10 μM) was prepared in a low-protein-binding Eppendorf tube and chilled on ice. 0.5 mL of the pre-chilled ThT solution was added to one aliquot of lyophilized hIAPP, which was equilibrated to room temperature before opening the tube. Pipetting up and down four times was performed to facilitate complete dissolving of hIAPP. The 0.5 mL hIAPP-containing solution was immediately transferred to the remaining 0.5 mL ThT solution on ice. Pipetting up and down four times was performed to facilitate complete mixing. The resulting 1 mL hIAPP solution, where [hIAPP]=20 μM, was immediately transferred to a 25 mL liquid reservoir. Using a multi-channel pipette, 30 μL of the hIAPP solution was quickly loaded into wells containing aqueous solutions of cyclic peptides on the 96-well plate. Final [hIAPP]=10 μM, [ThT]=5 μM.
ThT assay conditions. The plate was then quickly covered and incubated in a Tecan M Plex microplate reader under quiescent condition at 32° C. for at least 12 h. ThT fluorescence at 480 nm was measured every 5 min through the bottom of the plate using an excitation wavelength of 440 nm.
Fitting of aggregation kinetics. ThT aggregation kinetics data was fit to a sigmoidal function using GraphPad Prism and the aggregation lag time (tlag) and the apparent fibril elongation rate (kapp) calculated as described.^55

Chain of hIAPP-T7n (P10997+P00573 fused): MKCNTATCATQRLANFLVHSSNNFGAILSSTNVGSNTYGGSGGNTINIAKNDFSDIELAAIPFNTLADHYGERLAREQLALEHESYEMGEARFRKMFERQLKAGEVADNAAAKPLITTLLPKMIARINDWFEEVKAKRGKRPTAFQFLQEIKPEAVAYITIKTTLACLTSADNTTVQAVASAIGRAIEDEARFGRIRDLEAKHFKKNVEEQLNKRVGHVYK
T1 sequence (P05067+P00573 fused): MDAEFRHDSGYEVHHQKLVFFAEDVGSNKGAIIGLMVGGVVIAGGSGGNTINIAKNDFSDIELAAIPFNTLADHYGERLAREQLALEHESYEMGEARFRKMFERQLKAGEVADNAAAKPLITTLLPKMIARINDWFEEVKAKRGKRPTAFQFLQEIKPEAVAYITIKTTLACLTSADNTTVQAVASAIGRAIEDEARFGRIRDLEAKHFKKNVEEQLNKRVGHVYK
Chain of Aβ42-GFP (P05067 672-713): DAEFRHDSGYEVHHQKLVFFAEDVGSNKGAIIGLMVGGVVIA

inhibition of hIAPP aggregation (ThT fluorescence) [6]	Substance	Fold enrichment in negative vs. positive selection [1]	Percent total reads (negative selection) [1]	Rank (negative selection) [1]	Percent total reads (positive selection) [2]	Rank (positive selection) [2]	phage propagation activity (fitness) on Aβ42-T7n selection ([3]; clonal SP encoding the sequence)	activity in Aβ42-GFP folding reporter assay [4]	share of total sequencing reads in final SP pool [5]	discrimination between active SP and scrambled control (phage propagation) ([3]; evolved SP (PACE 1 clone 2) (FIG. 2D))	increase in phage proliferation compared to SP carrying scrambled control ([3]; parent SP, vs CVQWLKL SP (FIG. 8A))
–	CCGLYNI	0.48	0.15%	31	0.31%	5	–	–	–	–	–
–	CCHSFFR	2.87	0.83%	12	0.29%	6	–	–	–	–	–
–	CFFRGSD	81.53	4.73%	6	0.06%	18	–	–	–	–	–
–	CFNLVVD	64.65	4.85%	5	0.08%	15	–	–	–	–	–
–	CGIRSLG	20.09	4.48%	7	0.22%	7	–	–	–	–	–
–	CGLGHGN	124.22	1.12%	10	0.009%	53	–	–	–	–	–
–	CHVHSYL	3.31	6.03%	4	1.82%	2	–	–	–	–	–
–	CISCHYG	0.92	0.12%	34	0.13%	8	–	–	–	–	–
–	CIYFHHH	28.44	3.33%	8	0.12%	9	–	–	–	–	–
–	CLNYFHG	20.08	7.05%	3	0.35%	3	–	–	–	–	–
–	CNRLDVS	83.68	1.84%	9	0.02%	26	–	–	–	–	–
–	CRVWCAR (cyclic; Circular) [cyclo-CRVWCAR]	–	–	–	–	–	robust propagation	comparable activity to CKVWQLL	~65%	–	–
–	CVSYILL	4.21	0.45%	16	0.11%	10	–	–	–	–	–
–	CYILSIG	1.10	0.37%	18	0.34%	4	–	–	–	–	–
–	cyclo-CKVWQLL [CKVWQLL SP, reference compound]	–	–	–	–	–	–	–	–	~300 fold	~500 fold
completely inactive	linear CDLGVFR	–	–	–	–	–	–	–	–	–	–
greatly reduced ability to inhibit hIAPP	linear CHVVGVI [linear CHWGVI]	–	–	–	–	–	–	–	–	–	–
moderately inhibited hNAPP aggregation	linear CRCVFSG [linear CRCVSFG]	–	–	–	–	–	–	–	–	–	–
